Measured values published in ChEMBL document CHEMBL4251708, “Synthesis and Biological Screening of Pyrano[3,2-c]quinoline Analogues as Anti-inflammatory and Anticancer Agents” (ACS Med Chem Lett, 2018).
The source made the active and inactive calls. The rule behind the calls is not given here.

Columns and labels:
THP-1 [1] = experiment: Antiinflammatory activity in PMA-differentiated human THP1 cells assessed as inhibition of LPS-induced IL-6 production at 10 uM after 24 hrs by ELISA relative to control; assay type: functional; conditions: THP-1, 24 h
THP-1 [2] = experiment: Antiinflammatory activity in PMA-differentiated human THP1 cells assessed as inhibition of LPS-induced TNF-alpha production at 10 uM after 24 hrs by ELISA relative to control; assay type: functional; conditions: THP-1, 24 h
ACHN (Homo sapiens) [3] = experiment: Antiproliferative activity against human ACHN cells at 1 uM relative to control
[4] = test system: MDA-MB-231 (Homo sapiens); experiment: Antiproliferative activity against human MDA-MB-231 cells at 1 uM relative to control; conditions: mda-mb-231, 1 µM
THP-1 (Homo sapiens) [5] = experiment: Antiinflammatory activity in human THP1 cells assessed as inhibition of IL-6 production at 10 uM relative to control; parameters: scale not given: the % may be the effect or the level left
MIA PaCa-2 = experiment: Antiproliferative activity against human MIAPaCa2 cells at 10 uM relative to control; assay type: functional
THP-1 [6] = experiment: Antiinflammatory activity in PMA-differentiated human THP1 cells assessed as inhibition of LPS-induced TNF-alpha production at 1 uM after 24 hrs by ELISA relative to control; assay type: functional; conditions: THP-1, 24 h
[7] = test system: MDA-MB-231 (Homo sapiens); experiment: Antiproliferative activity against human MDA-MB-231 cells at 10 uM relative to control
THP-1 (Homo sapiens) [8] = experiment: Antiinflammatory activity in human THP1 cells assessed as inhibition of TNF-alpha production at 10 uM relative to control; parameters: scale not given: the % may be the effect or the level left
THP-1 [9] = experiment: Antiinflammatory activity in PMA-differentiated human THP1 cells assessed as inhibition of LPS-induced IL-6 production at 1 uM after 24 hrs by ELISA relative to control; assay type: functional; conditions: THP-1, 24 h
[10] = test system: MIA PaCa-2 (Homo sapiens); experiment: Antiproliferative activity against human MIA PaCa-2 cells at 1 uM relative to control
PANC-1 = experiment: Antiproliferative activity against human PANC1 cells after 48 hrs by propidium iodide staining based fluorometry; assay type: functional, cell-based; conditions: PANC-1, 48 h
ACHN = experiment: Antiproliferative activity against human ACHN cells after 48 hrs by propidium iodide staining based fluorometry; assay type: functional, cell-based
THP-1 [11] = experiment: Cytotoxicity against PMA-differentiated human THP1 cells assessed as reduction in cell viability after 4.5 hrs by MTS assay; assay type: cell-based; conditions: THP-1, 4.5 h
PBMC = experiment: Antiinflammatory activity in human PBMC assessed as inhibition of LPS-induced TNF-alpha production incubated for 30 mins followed by LPS addition measured after 4.5 hrs by ELISA; assay type: functional, cell-based
THP-1 [12] = experiment: Antiinflammatory activity in PMA-differentiated human THP1 cells assessed as inhibition of LPS-induced TNF-alpha production after 24 hrs by ELISA; assay type: functional, cell-based; conditions: THP-1, 24 h
NCI-H460 = experiment: Antiproliferative activity against human H460 cells after 48 hrs by propidium iodide staining based fluorometry; assay type: functional, cell-based; conditions: NCI-H460, 48 h
Calu-1 = experiment: Antiproliferative activity against human Calu1 cells after 48 hrs by propidium iodide staining based fluorometry; assay type: functional, cell-based; conditions: Calu-1, 48 h
THP-1 [13] = experiment: Antiinflammatory activity in PMA-differentiated human THP1 cells assessed as inhibition of LPS-induced IL-6 production after 24 hrs by ELISA; assay type: functional, cell-based; conditions: THP-1, 24 h
HCT-116 = experiment: Antiproliferative activity against human HCT116 cells after 48 hrs by propidium iodide staining based fluorometry; assay type: functional, cell-based; conditions: HCT-116, 48 h
ACHN (Homo sapiens) [14] = experiment: Antiproliferative activity against human ACHN cells at 10 uM relative to control

Compound | inhibition at 10 µM (THP-1 [1]) [%] | inhibition at 10 µM (THP-1 [2]) [%] | Activity (ACHN (Homo sapiens) [3]) [%] | Activity [4] [%] | Activity (THP-1 (Homo sapiens) [5]) [%] | Activity (MIA PaCa-2) [%] | inhibition at 1 µM (THP-1 [6]) [%] | Activity [7] [%] | Activity (THP-1 (Homo sapiens) [8]) [%] | inhibition at 1 µM (THP-1 [9]) [%] | Activity [10] [%] | other results
Cn1c(=O)c2c(c3ccccc31)OC(N)=C(C#N)C2c1cccc(O)c1 (configuration not stated) | 0 | 0 | 0 | 0 | 11 | 29 | 5 | 12 | 4 | 0 | 17 | 
CSc1ccc(C2C(C#N)=C(N)Oc3c2c(=O)n(C)c2ccccc32)cc1 (configuration not stated) | 0 | 0 | 0 | 0 | 37 | 17 | 0 | 10 | 28 | 0 | 16 | 
Cn1c(=O)c2c(c3ccccc31)OC(N)=C(C#N)C2c1c2ccccc2cc2ccccc12 (configuration not stated) | 10 | 0 | 25 | 19 | 0 | 66 | 0 | 69 | 0 | 0 | 40 | 
COc1ccc(C2C(C#N)=C(N)Oc3c2c(=O)n(C)c2ccccc32)cc1 (configuration not stated) | 73 | 0 | 78 | 70 | 77 | 84 | 0 | 81 | 0 | 0 | 80 | IC50 (PANC-1): > 20000 nM; IC50 (ACHN): > 20000 nM; IC50 (THP-1 [11]): 30000 nM; inhibition (PBMC): inactive; IC50 (THP-1 [12]): 12800 nM; IC50 (NCI-H460): > 20000 nM; IC50 (Calu-1): > 20000 nM; IC50 (THP-1 [13]): 1700 nM; IC50 (HCT-116): > 20000 nM
CN(C)c1ccc(C2C(C#N)=C(N)Oc3c2c(=O)n(C)c2ccccc32)cc1 (configuration not stated) | 10 | 0 | 41 | 20 | 0 | 31 | 0 | 22 | 0 | 0 | 34 | 
Cn1c(=O)c2c(c3ccccc31)OC(N)=C(C#N)C2c1ccc(Cl)cc1 (configuration not stated) | 75 | 0 | 45 | 0 | 75 | 63 | 0 |  | 42 | 0 | 21 | Activity (ACHN (Homo sapiens) [14]): 69%
C[C@@H]1C[C@H]2[C@@H]3CCC4=CC(=O)C=C[C@]4(C)[C@@]3(F)[C@@H](O)C[C@]2(C)[C@@]1(O)C(=O)CO [DEXAMETHASONE] |  |  |  |  |  |  | 40 |  |  | 58 |  | 
Cn1c(=O)c2c(c3ccccc31)OC(N)=C(C#N)C2c1cccc(Cl)c1 (configuration not stated) | 74 | 0 | 81 | 53 | 74 | 38 | 0 |  | 44 | 0 | 63 | IC50 (PANC-1): 1000 nM; IC50 (ACHN): 100 nM; IC50 (THP-1 [11]): > 10000 nM; IC50 (PBMC): 1800 nM; IC50 (THP-1 [12]): 500 nM; IC50 (NCI-H460): 300 nM; IC50 (Calu-1): 500 nM; IC50 (THP-1 [13]): 200 nM; IC50 (HCT-116): 300 nM
COc1ccccc1C1C(C#N)=C(N)Oc2c1c(=O)n(C)c1ccccc21 (configuration not stated) | 14 | 0 | 37 | 22 | 32 | 21 | 0 | 18 | 0 | 0 | 24 | 
